Converted amounts (≈) assume the structure as drawn. Where two headings read alike, the source gives them in different places.
Tests used:
[1] = tested on: E. coli; assay: MIC with/without bovine pulmonary surfactant, E. coli; assay type: cell-based, Escherichia coli; conditions: E. coli ATCC 25922
Method: (§1) Clinical isolates were identified by the submitting laboratories and confirmed by JMI Laboratories using standard bacteriologic algorithms and methodologies, including Matrix-Assisted Laser Desorption Ionization-Time Of Flight Mass Spectrometry (MALDI-TOF MS). When necessary, MALDI-TOF MS was performed using the Bruker Daltonics MALDI Biotyper (Billerica, Mass., USA), following manufacturer's instructions. Isolates selected were bacterial species commonly associated with pneumonia. […] 2.2 Susceptibility testing
(§2) Antibacterial susceptibility testing was measured by JMI Labs (North Liberty, Iowa, USA). […] These clinical isolates were collected from US (n=4), Mexico (n=2), and Italy (n=1). Susceptibility testing was performed by broth microdilution in accordance with the Clinical and Laboratory and Standards Institute (CLSI) guidelines M07-A10 (2015) and the standard operating procedures at JMI laboratories. Minimum inhibitory concentrations (MICs) were based on CLSI criteria (2015). There are no published breakpoints for iclaprim. E. coli, K. pneumoniae, M. catarrhalis, E. faecalis, and S. aureus were tested in cation-adjusted Mueller-Hinton broth (CA-MHB). S. pneumoniae were tested in CA-MHB supplemented with 2.5-5% lysed horse blood, and H. influenza were tested in Haemophilus test medium. Quality control and interpretation of results were performed in accordance with CLSI M100-S26 (2016) methods. QC ranges for iclaprim were those approved by CLSI and published in M100-S26 (2016). Iclaprim and comparator antibiotic MIC results were within the CLSI published ranges against E. coli ATCC 25922, E. faecalis ATCC 29212, E. faecalis ATCC 33186, H. influenzae ATCC 49247, K. pneumoniae ATCC 700603 (ESBL phenotype), S. aureus ATCC 29213, and S. pneumoniae ATCC 49619. Isolates were tested with MIC panels (ThermoFisher Scientific, Cleveland, Ohio, USA) of comparator antibiotics (daptomycin and levofloxacin).
(§3) Because bovine pulmonary surfactant can introduce cloudiness to the MIC testing media, antimicrobial growth inhibition was also evaluated using the colorimetric metabolic indicator resazurin (Camlab Ltd., Cambridge, UK). […] S. pneumoniae panels were omitted from resazurin analysis because the color change was obscured by the lysed horse blood present in the test medium. Growth inhibition was then evaluated as a visible color change from blue (no growth) to pink (robust growth) and recorded as a MICRZ value.
(§4) The MICs of iclaprim, levofloxacin, and daptomycin were determined against Gram-positive and Gram-negative isolates.
A new vial of bovine pulmonary surfactant (BPS; Survanta®; Abbott Laboratories, Columbus, Ohio) was utilized for each independent experiment. […] MICs of daptomycin were determined in CAMHB with the Ca^2+ content adjusted to 50 mg/L.

[2] = tested on: E. faecalis; assay: MIC with/without bovine pulmonary surfactant, E. faecalis; assay type: cell-based, Enterococcus faecalis; conditions: for MIC: Enterococcus faecalis
Method: as §1, §2, §3, §4
(§5) A new vial of bovine pulmonary surfactant (BPS; Survanta®; Abbott Laboratories, Columbus, Ohio) was utilized for each independent experiment. Each vial was mixed thoroughly and a 100 μL aliquot was spread on an agar plate, which was incubated overnight to confirm sterility. […] The concentration of surfactant was expressed in terms of percent volume of Survanta® suspension, which consisted of phospholipid (25 mg/mL) and surfactant proteins (<1 mg/mL) in 0.9% sodium chloride solution (Goerke, 1998). MICs of daptomycin were determined in CAMHB with the Ca^2+ content adjusted to 50 mg/L.

[3] = tested on: H. influenzae; assay: MIC with/without bovine pulmonary surfactant, H. influenzae; assay type: cell-based, Haemophilus influenzae; conditions: for MIC: Haemophilus influenzae
Method: as §1, §2, §3, §4, §5

[4] = tested on: K. pneumoniae; assay: MIC with/without bovine pulmonary surfactant, K. pneumoniae; assay type: cell-based, Klebsiella pneumoniae; conditions: for MIC: Klebsiella pneumoniae
Method: as §1, §2, §3, §4, §5

[5] = tested on: M. catarrhalis; assay: MIC with/without bovine pulmonary surfactant, M. catarrhalis; assay type: cell-based, Moraxella catarrhalis; conditions: for MICRZ, Resazurin: +BPS: 2.5% v/v BPS
Method: as §1, §2, §3, §4, §5

[6] = tested on: S. aureus; assay: MIC with/without bovine pulmonary surfactant, S. aureus; assay type: cell-based, Staphylococcus aureus; conditions: for MICRZ, Resazurin: +BPS: 2.5% v/v BPS; for MICRZ, Resazurin: no BPS
Method: as §1, §2, §3, §4, §5

[7] = tested on: S. pneumoniae; assay: MIC with/without bovine pulmonary surfactant, S. pneumoniae; assay type: cell-based; conditions: Streptococcus pneumoniae
Method: as §1, §2, §3, §4, §5

[8] = tested on: S. aureus strain AH1252; assay: Neutropenic rat lung infection model; assay type: in vivo; conditions: iclaprim 80 mg/kg
Method: S. aureus strain AH1252, a thymidine knockout of the MRSA wild type AW6 strain, was utilized for this study. The bacterial strain was diluted in a 2% alginate buffer, which was added dropwise in a ratio of 1:5 into […] to form alginate beads. The alginate beads reduce the efficacy of bacterial clearance similar to that seen in the cystic fibrosis population. A 5.25×10^4 bacterial inoculum was administered to groups of 9 rats, intratracheally, with prepared alginate bacteria suspensions, under isoflurane anesthesia. […] Twelve hours after the last treatment, rats were euthanized and lungs collected for CFU determination.

[9] = tested on: nosocomial pneumonia suspected or confirmed to be caused by Gram-positive pathogens; conditions: intent-to-treat, test of cure visit; vancomycin 1 g IV q12h; cited from earlier work
[10] = S. aureus Clinical Isolate 825189
[11] = SC/BID 3 days, vancomycin 50 mg/kg

## C[C@H]1COc2c(N3CCN(C)CC3)c(F)cc3c(=O)c(C(=O)O)cn1c23 [Levofloxacin]
[1]; 2.5% v/v BPS
  MICRZ, Resazurin: +BPS: 0.03 µg/mL
[1]; no BPS
  MICRZ, Resazurin: 0.015 µg/mL
[2]; E. faecalis ATCC 29212, 2.5% v/v BPS
  MICRZ, Resazurin: +BPS: 1 µg/mL
[2]; E. faecalis ATCC 29212, no BPS
  MICRZ, Resazurin: 1 µg/mL
[2]; E. faecalis ATCC 33186, 2.5% v/v BPS
  MICRZ, Resazurin: +BPS: 2 µg/mL
[2]; E. faecalis ATCC 33186, no BPS
  MICRZ, Resazurin: 4 µg/mL
[2]; ATCC29212, E. faecalis ATCC 29212, 2.5% v/v BPS, read-out: MIC, CLSI: +BPS
  MIC: 1 mg/L (≈ 2.77 µM)
[2]; ATCC29212, E. faecalis ATCC 29212, no BPS, read-out: MIC, CLSI
  MIC: 1 mg/L (≈ 2.77 µM)
[2]; ATCC33186, E. faecalis ATCC 33186, 2.5% v/v BPS, read-out: MIC, CLSI: +BPS
  MIC: 1 mg/L (≈ 2.77 µM)
[2]; ATCC33186, E. faecalis ATCC 33186, no BPS, read-out: MIC, CLSI
  MIC: 4 mg/L (≈ 11.1 µM)
[3]; H. influenzae ATCC 49247, 2.5% v/v BPS
  MICRZ, Resazurin: +BPS: 0.03 µg/mL
[3]; H. influenzae ATCC 49247, no BPS
  MICRZ, Resazurin: 0.03 µg/mL
[3]; H. influenzae Clinical Isolate 824704, 2.5% v/v BPS
  MICRZ, Resazurin: +BPS: 0.015 µg/mL
[3]; H. influenzae Clinical Isolate 824704, no BPS
  MICRZ, Resazurin: 0.015 µg/mL
[3]; ATCC49247, H. influenzae ATCC 49247, 2.5% v/v BPS, read-out: MIC, CLSI: +BPS
  MIC: 0.03 mg/L (≈ 0.083 µM)
[3]; ATCC49247, H. influenzae ATCC 49247, no BPS, read-out: MIC, CLSI
  MIC: 0.03 mg/L (≈ 0.083 µM)
[3]; H. influenzae Clinical Isolate 824704, 2.5% v/v BPS, read-out: MIC, CLSI: +BPS
  MIC: 0.015 mg/L (≈ 0.0415 µM)
[3]; H. influenzae Clinical Isolate 824704, no BPS, read-out: MIC, CLSI
  MIC: 0.015 mg/L (≈ 0.0415 µM)
[4]; K. pneumoniae ATCC 700603, 2.5% v/v BPS
  MICRZ, Resazurin: +BPS: 1 µg/mL
[4]; K. pneumoniae ATCC 700603, no BPS
  MICRZ, Resazurin: 1 µg/mL
[4]; K. pneumoniae Clinical Isolate 858055, 2.5% v/v BPS
  MICRZ, Resazurin: +BPS: 0.06 µg/mL
[4]; K. pneumoniae Clinical Isolate 858055, no BPS
  MICRZ, Resazurin: 0.06 µg/mL
[4]; ATCC700603, K. pneumoniae ATCC 700603, 2.5% v/v BPS, read-out: MIC, CLSI: +BPS
  MIC: 1 mg/L (≈ 2.77 µM)
[4]; ATCC700603, K. pneumoniae ATCC 700603, no BPS, read-out: MIC, CLSI
  MIC: 1 mg/L (≈ 2.77 µM)
[4]; K. pneumoniae Clinical Isolate 858055, 2.5% v/v BPS, read-out: MIC, CLSI: +BPS
  MIC: 0.12 mg/L (≈ 0.332 µM)
[4]; K. pneumoniae Clinical Isolate 858055, no BPS, read-out: MIC, CLSI
  MIC: 0.06 mg/L (≈ 0.166 µM)
[5]; M. catarrhalis Clinical Isolate 893806
  MICRZ, Resazurin: +BPS: 0.06 µg/mL
[5]; M. catarrhalis Clinical Isolate 893806, no BPS
  MICRZ, Resazurin: 0.06 µg/mL
[5]; M. catarrhalis Clinical Isolate 893807
  MICRZ, Resazurin: +BPS: 0.06 µg/mL
[5]; M. catarrhalis Clinical Isolate 893807, no BPS
  MICRZ, Resazurin: 0.06 µg/mL
[5]; Moraxella catarrhalis, M. catarrhalis Clinical Isolate 893806, no BPS
  MIC: 0.06 mg/L (≈ 0.166 µM)
[6]; S. aureus ATCC 29213
  MICRZ, Resazurin: +BPS: 0.12 µg/mL
  MICRZ, Resazurin: 0.25 µg/mL
[6]; [10]
  MICRZ, Resazurin: +BPS: 0.25 µg/mL
  MICRZ, Resazurin: 0.25 µg/mL
[7]; ATCC49619, S. pneumoniae ATCC 49619, 2.5% v/v BPS, read-out: MIC, CLSI: +BPS
  MIC: 1 mg/L (≈ 2.77 µM)
[7]; ATCC49619, S. pneumoniae ATCC 49619, no BPS, read-out: MIC, CLSI
  MIC: 1 mg/L (≈ 2.77 µM)
[7]; S. pneumoniae Clinical Isolate 818757, 2.5% v/v BPS, read-out: MIC, CLSI: +BPS
  MIC: 1 mg/L (≈ 2.77 µM)
[7]; S. pneumoniae Clinical Isolate 818757, no BPS, read-out: MIC, CLSI
  MIC: 1 mg/L (≈ 2.77 µM)
[7]; S. pneumoniae Clinical Isolate 825175, 2.5% v/v BPS, read-out: MIC, CLSI: +BPS
  MIC: 1 mg/L (≈ 2.77 µM)
[7]; S. pneumoniae Clinical Isolate 825175, no BPS, read-out: MIC, CLSI
  MIC: 1 mg/L (≈ 2.77 µM)

## CN[C@H](CC(C)C)C(=O)N[C@H]1C(=O)N[C@@H](CC(N)=O)C(=O)N[C@H]2C(=O)N[C@H]3C(=O)N[C@H](C(=O)N[C@H](C(=O)O)c4cc(O)cc(O)c4-c4cc3ccc4O)[C@H](O)c3ccc(c(Cl)c3)Oc3cc2cc(c3O[C@@H]2O[C@H](CO)[C@@H](O)[C@H](O)[C@H]2O[C@H]2C[C@](C)(N)[C@H](O)[C@H](C)O2)Oc2ccc(cc2Cl)[C@H]1O [Vancomycin]
[8]; [11]
  72 hour lungs (CFU/gram of lung) log10CFU/Lung: 5.30 log10CFU/Lung
  Change in CFUs from 2 hr.: 2.18 log 10 CFU
[8]; SC/BID 3 days, vancomycin 50 mg/kg, 9 rats
  Survival >60 hrs: 8/9
[8]; vancomycin 50 mg/kg SC/BID
  survival compared to the infection controls: increased survival
[8]; vs 72 hr infection controls, vancomycin 50 mg/kg SC/BID
  Change in CFUs from 72 hr.: −3.38 log 10 CFU
[9]
  cure rate: 52.2%

Source: patent publication US10080751B2, “Systems and methods for treating bacterial infection” (priority 2016, dated 2018)
